Data from patent publication US20030129629A1, “Methods and compositions for the identification, assessment, prevention, and therapy of human cancers” (Millennium Pharmaceuticals, Inc., priority 2000, published 2003).
Where two headings read alike, the source gives them in different places.

Experiments:
[1] = tested on: 60 cancer cell lines (NCI 60 cancer cell line series); assay: NCI-DTP in vitro cancer screen, sulforhodamine B (SRB) growth inhibition, 48 hour exposure; assay type: cell-based, human
Method in brief: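 Potency is given as mean −log{GI50} from dose–response curves, manually binned into Low, Medium or High sensitivity. Sixty NCI-DTP tumour lines were treated 48 h with a duplicate, five-dose, ten-fold dilution series, and growth read by SRB staining of cell mass.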

[2] = tested on: 60 cancer cell lines (NCI 60 cancer cell line series); details: cited from earlier work

Substance: Carboplatin
- classification of cell line as Low(1), Medium(2), High(3) sensitivity to compound ([1]; Breast BT-549 CL5013): 2
- classification of cell line as Low(1), Medium(2), High(3) sensitivity to compound ([1]; Breast HS-578T CL5006): 2
- classification of cell line as Low(1), Medium(2), High(3) sensitivity to compound ([1]; Breast MCF7(I) CL5001): 2
- classification of cell line as Low(1), Medium(2), High(3) sensitivity to compound ([1]; Breast MCF7/ADRr CL5002): 2
- classification of cell line as Low(1), Medium(2), High(3) sensitivity to compound ([1]; Breast MDA-MB-231 CL5005): 1
- classification of cell line as Low(1), Medium(2), High(3) sensitivity to compound ([1]; Breast MDA-MB-435 CL5011): 1
- classification of cell line as Low(1), Medium(2), High(3) sensitivity to compound ([1]; Breast MDA-N CL5012): 2
- classification of cell line as Low(1), Medium(2), High(3) sensitivity to compound ([1]; Breast T-47D CL5014): 1
- classification of cell line as Low(1), Medium(2), High(3) sensitivity to compound ([1]; CNS SF-268 CL12014): 3
- classification of cell line as Low(1), Medium(2), High(3) sensitivity to compound ([1]; CNS SF-295 CL12015): 3
- classification of cell line as Low(1), Medium(2), High(3) sensitivity to compound ([1]; CNS SF-539 CL12016): 2
- classification of cell line as Low(1), Medium(2), High(3) sensitivity to compound ([1]; CNS SNB-19 CL12002): 2
- classification of cell line as Low(1), Medium(2), High(3) sensitivity to compound ([1]; CNS SNB-75(I) CL12005): 2
- classification of cell line as Low(1), Medium(2), High(3) sensitivity to compound ([1]; CNS U251(I) CL12009): 2
- classification of cell line as Low(1), Medium(2), High(3) sensitivity to compound ([1]; Colon COLO-250 CL4010): 1
- classification of cell line as Low(1), Medium(2), High(3) sensitivity to compound ([1]; Colon HCC-2998 CL4002): 1
- classification of cell line as Low(1), Medium(2), High(3) sensitivity to compound ([1]; Colon HCT-15 CL4015): 1
- classification of cell line as Low(1), Medium(2), High(3) sensitivity to compound ([1]; Colon HCT-116 CL4003): 2
- classification of cell line as Low(1), Medium(2), High(3) sensitivity to compound ([1]; Colon HT29(I) CL4001): 1
- classification of cell line as Low(1), Medium(2), High(3) sensitivity to compound ([1]; Colon KM12 CL4017): 1
- classification of cell line as Low(1), Medium(2), High(3) sensitivity to compound ([1]; Colon SW-620 CL4009): 2
- classification of cell line as Low(1), Medium(2), High(3) sensitivity to compound ([1]; Leukemia CCRF-CEM(I) CL7003): 2
- classification of cell line as Low(1), Medium(2), High(3) sensitivity to compound ([1]; Leukemia HL-60(I) CL7008): 3
- classification of cell line as Low(1), Medium(2), High(3) sensitivity to compound ([1]; Leukemia K562(I) CL7005): 2
- classification of cell line as Low(1), Medium(2), High(3) sensitivity to compound ([1]; Leukemia MOLT-4 CL7006): 2
- classification of cell line as Low(1), Medium(2), High(3) sensitivity to compound ([1]; Leukemia RPMI-8226(I) CL7010): 2
- classification of cell line as Low(1), Medium(2), High(3) sensitivity to compound ([1]; Leukemia SR CL7019): 2
- classification of cell line as Low(1), Medium(2), High(3) sensitivity to compound ([1]; Melanoma LOX IMVI CL10001): 2
- classification of cell line as Low(1), Medium(2), High(3) sensitivity to compound ([1]; Melanoma M14 CL10014): 2
- classification of cell line as Low(1), Medium(2), High(3) sensitivity to compound ([1]; Melanoma MALME-3M CL10002): 2
- classification of cell line as Low(1), Medium(2), High(3) sensitivity to compound ([1]; Melanoma SK-MEL-2 CL10005): 2
- classification of cell line as Low(1), Medium(2), High(3) sensitivity to compound ([1]; Melanoma SK-MEL-28 CL10008): 2
- sensitivity classification Low(1)/Medium(2)/High(3) ([1]; NSCLC NCI-H23(I) CL1001): 3
- sensitivity classification Low(1)/Medium(2)/High(3) ([1]; NSCLC NCI-H332M CL1017): 1
- sensitivity classification Low(1)/Medium(2)/High(3) ([1]; NSCLC NCI-H460 CL1021): 3
- sensitivity classification Low(1)/Medium(2)/High(3) ([1]; NSCLC NCI-H522 CL1003): 3
- sensitivity classification Low(1)/Medium(2)/High(3) ([1]; Ovarian IGROV1 CL6010): 3
- sensitivity classification Low(1)/Medium(2)/High(3) ([1]; Ovarian OVCAR-3 CL6001): 2
- sensitivity classification Low(1)/Medium(2)/High(3) ([1]; Ovarian OVCAR-4 CL6002): 2
- sensitivity classification Low(1)/Medium(2)/High(3) ([1]; Ovarian OVCAR-5 CL6003): 1
- sensitivity classification Low(1)/Medium(2)/High(3) ([1]; Ovarian OVCAR-8 CL6005): 2
- sensitivity classification Low(1)/Medium(2)/High(3) ([1]; Ovarian SK-OV-3 CL6011): 2
- sensitivity classification Low(1)/Medium(2)/High(3) ([1]; Prostate DU-145 CL11003): 2
- sensitivity classification Low(1)/Medium(2)/High(3) ([1]; Prostate PC-3(I) CL11001): 1
- sensitivity classification Low(1)/Medium(2)/High(3) ([1]; Renal 786-0 CL9018): 2
- sensitivity classification Low(1)/Medium(2)/High(3) ([1]; Renal A498 CL9013): 1
- sensitivity classification Low(1)/Medium(2)/High(3) ([1]; Renal ACHN CL9023): 2
- sensitivity classification Low(1)/Medium(2)/High(3) ([1]; Renal CAKI-1 CL9015): 2
- sensitivity classification Low(1)/Medium(2)/High(3) ([1]; Renal RXF-393 CL9016): 2
- sensitivity classification Low(1)/Medium(2)/High(3) ([1]; Renal SN12C CL9008): 2
- sensitivity classification Low(1)/Medium(2)/High(3) ([1]; Renal TK10 CL9024): 1
- sensitivity classification Low(1)/Medium(2)/High(3) ([1]; Renal UO-31 CL9004): 2
- −Log (GI50) ([2]; Breast BT-549 CL5013): 3.7
- −Log (GI50) ([2]; Breast HS-578T CL5006): 3.8
- −Log (GI50) ([2]; Breast MCF7(I) CL5001): 3.9
- −Log (GI50) ([2]; Breast MCF7/ADRr CL5002): 3.8
- −Log (GI50) ([2]; Breast MDA-MB-231 CL5005): 3.6
- −Log (GI50) ([2]; Breast MDA-MB-435 CL5011): 3.7
- −Log (GI50) ([2]; Breast MDA-N CL5012): 3.8
- −Log (GI50) ([2]; Breast T-47D CL5014): 3.6
- −Log (GI50) ([2]; CNS SF-268 CL12014): 4.3
- −Log (GI50) ([2]; CNS SF-295 CL12015): 4.2
- −Log (GI50) ([2]; CNS SF-539 CL12016): 4.1
- −Log (GI50) ([2]; CNS SNB-19 CL12002): 3.8
- −Log (GI50) ([2]; CNS SNB-75(I) CL12005): 4.0
- −Log (GI50) ([2]; CNS U251(I) CL12009): 4.2
- −Log (GI50) ([2]; Colon COLO-250 CL4010): 3.6
- −Log (GI50) ([2]; Colon HCC-2998 CL4002): 3.7
- −Log (GI50) ([2]; Colon HCT-15 CL4015): 3.6
- −Log (GI50) ([2]; Colon HCT-116 CL4003): 3.7
- −Log (GI50) ([2]; Colon HT29(I) CL4001): 3.7
- −Log (GI50) ([2]; Colon KM12 CL4017): 3.7
- −Log (GI50) ([2]; Colon SW-620 CL4009): 3.8
- −Log (GI50) ([2]; Leukemia CCRF-CEM(I) CL7003): 4.2
- −Log (GI50) ([2]; Leukemia HL-60(I) CL7008): 4.5
- −Log (GI50) ([2]; Leukemia K562(I) CL7005): 3.8
- −Log (GI50) ([2]; Leukemia MOLT-4 CL7006): 4.1
- −Log (GI50) ([2]; Leukemia RPMI-8226(I) CL7010): 3.8
- −Log (GI50) ([2]; Leukemia SR CL7019): 4.1
- −Log (GI50) ([2]; Melanoma LOX IMVI CL10001): 4.2
- −Log (GI50) ([2]; Melanoma M14 CL10014): 4.0
- −Log (GI50) ([2]; Melanoma MALME-3M CL10002): 4.1
- −Log (GI50) ([2]; Melanoma SK-MEL-2 CL10005): 3.8
- −Log (GI50) ([2]; Melanoma SK-MEL-5 CL10007): 4.0
- −Log (GI50) ([2]; Melanoma SK-MEL-28 CL10008): 3.8
- −Log (GI50) ([2]; Melanoma UACC-62 CL10020): 4.4
- −Log (GI50) ([2]; Melanoma UACC-257 CL10021): 3.9
- −Log (GI50) ([2]; NSCLC A549/ATCC CL1004): 4.0
- −Log (GI50) ([2]; NSCLC EKVX CL1008): 3.7
- −Log (GI50) ([2]; NSCLC HOP-62 CL1026): 3.9
- −Log (GI50) ([2]; NSCLC HOP-92 CL1029): 4.0
- −Log (GI50) ([2]; NSCLC NCI-H23(I) CL1001): 4.3
- −Log (GI50) ([2]; NSCLC NCI-H226 CL1013): 3.9
- −Log (GI50) ([2]; NSCLC NCI-H332M CL1017): 3.7
- −Log (GI50) ([2]; NSCLC NCI-H460 CL1021): 4.5
- −Log (GI50) ([2]; NSCLC NCI-H522 CL1003): 4.3
- −Log (GI50) ([2]; Ovarian IGROV1 CL6010): 4.3
- −Log (GI50) ([2]; Ovarian OVCAR-3 CL6001): 4.2
- −Log (GI50) ([2]; Ovarian OVCAR-4 CL6002): 4.1
- −Log (GI50) ([2]; Ovarian OVCAR-5 CL6003): 3.6
- −Log (GI50) ([2]; Ovarian OVCAR-8 CL6005): 3.7
- −Log (GI50) ([2]; Ovarian SK-OV-3 CL6011): 3.7
- −Log (GI50) ([2]; Prostate DU-145 CL11003): 3.9
- −Log (GI50) ([2]; Prostate PC-3(I) CL11001): 3.6
- −Log (GI50) ([2]; Renal 786-0 CL9018): 4.0
- −Log (GI50) ([2]; Renal A498 CL9013): 3.7
- −Log (GI50) ([2]; Renal ACHN CL9023): 4.1
- −Log (GI50) ([2]; Renal CAKI-1 CL9015): 4.1
- −Log (GI50) ([2]; Renal RXF-393 CL9016): 4.2
- −Log (GI50) ([2]; Renal SN12C CL9008): 3.8
- −Log (GI50) ([2]; Renal TK10 CL9024): 3.7
- −Log (GI50) ([2]; Renal UO-31 CL9004): 3.8
